Measurements reported in patent publication US6984729B1, “Oligonucleotides specific for hepatitis B virus” (priority 1995, dated 2006).
pIC50: −log10 of the molar value. Strand notation (5' to 3'): a small letter for the sugar, then the base; units joined by * are phosphorothioate-linked, units joined directly phosphodiester-linked; [ ] holds rarer units or linkages, { } end groups; capitals alone tell only the bases. d = 2'-deoxy (DNA)

Key:
[1] = tested on: internally 32P-labelled HBV precore-core RNA (epsilon region); assay: RNase H cleavage of HBV precore-core RNA with noncontiguous oligonucleotides targeted to the epsilon region; format: biochemical, hepatitis B virus; conditions: for total RNA cleavage by RNase H: 10+10 and 12+12 noncontiguous oligonucleotides versus mixtures of arms, FIGS. 5A, 6A; for double cleavage (twice cleaved product) by RNase H on both sides of the epsilon stem: FIGS. 5B, 6B
Procedure: To determine whether an oligonucleotide of the invention is capable of successfully hybridizing to its target, an RNase H assay was performed (Frank et al. (1993) Proc. Int. Conf. Nucleic Acid Med. Applns. 1:4.14(abstract)). This assay is useful when a region of at least four contiguous nucleotides of the oligonucleotide is DNA and the target is RNA. Hybridization of the DNA portion of the oligonucleotide to the RNA target is identified by cleavage at that site by RNase H.
Noncontiguous oligonucleotides targeted to the HBV epsilon region have also been prepared and tested. The epsilon region is characterized by an RNA stem-loop structure consisting primarily of double-stranded RNA with a single-stranded bulge and loop of 6 bases each (FIG. 3). […] The ability of RNase H to cleave an RNA in this manner inflicts greater damage on the RNA than normal antisense oligodeoxynucleotides, while allowing the targeting of a biologically important region that is otherwise difficult to target due to its double-stranded nature.
Based on this information, several oligodeoxynucleotide phosphorothioates were prepared to test the hypothesis that hybridization by mode B is preferred when spanning the base of an RNA stem. 20mer and 24mer noncontiguous oligonucleotides (Table 2) were prepared as well as the 10mers and 12mers corresponding to the “arms” of the noncontiguous sequences.
If a single oligodeoxynucleotide were able to bind across the base of epsilon to sequences on either side of the stem, RNase H might cleave both sites and effectively cut out the epsilon stem-loop from the RNA. […] The 12+12 noncontiguous phosphorothioates show the same ability to bind across the base of the RNA stem. […] Double cleavage of the transcript in the presence of the mixture of 12mer arms (HBV71+HBV72) was much slower (FIG. 6B).
When oligonucleotides hybridizing via mode B were lengthened to allow strand invasion of the RNA stem, disruption of the stem-loop structure occurred. Oligonucleotides HBV89 (SEQ ID NO:39), HBV90 (SEQ ID NO:40), and HBV91 (SEQ ID NO:41) bind across the base of epsilon via mode B and strand invade on either the 5 side (HBV89) or the 3′ side (HBV90 and HBV91) of the RNA stem. HBV89M is an extension of HBV64M with ten 2′-O-methyl RNA residues invading the RNA stem on the 5′-side. Addition of these strand invading nucleotides increased the cleavage efficiency from 23% to 32% at 100 nM oligonucleotide.
Uniformally ^32P-labelled RNA was prepared from 1 μg linearized plasmid using the Ambion MEGAscript In Vitro Transcription Kit (Ambion, Inc., Austin, Tex.) according to the manufacturers' instructions, using [α-^32p] CTP as the radioactive label. The RNA was treated with RNase-free DNase I (Ambion, Inc., Austin, Tex.), extracted with phenol:chloroform: isoamyl alcohol (25:24:1) and purified from nucleotides and nucleosides on a G-50 Sephadex spin column (Boehringer-Mannheim, Indianapolis, Ind., or Pharmacia, Uppsala, Sweden).
In 9 μl 1× RNase H buffer (40 mM Tris-HCl pH 7.4, 4 mM MgCl2, 1 mM DTT), 20–100 nM labelled RNA and 100 nM oligonucleotides were preincubated for 15 min at 37° C. 1 μl RNase H (1 U/μl) was added, and the reaction was incubated at 37° C. for 10 min. The reactions were quenched and analyzed as described above.
Quantitation of the cleavage products was performed using software supplied with the Phosphorimager (Molecular Dynamics, Sunnyvale, Calif., or Bio-Rad Laboratories, Hercules, Calif.). “Counts” were determined by drawing a box around the band of interest and subtracting the background determined with a box drawn nearby. Counts in a product band were compared to total counts in the lane above that band to determine % cleavage.

[2] = tested on: HBV genomes in the supernatants from HepG2.2.15 cells; assay: Kinetic PCR HBV anti-viral assay on supernatants from HepG2.2.15 cells; format: cell-based, hepatitis B virus; conditions: copy number of HBV genomes in HepG2.2.15 supernatants, day 10
Procedure: In addition to Southern hybridizations, kinetic PCR was performed to assay the supernatants from the HepG2.2.15 cells. This procedure was carried out as described by Higuchi et al. (Biotechnol. (1993) 11:1026–1030). All PCRs were carried out with two sets of external controls which consisted of a dilution series of a known concentration of plasmid DNA that contained the HBV core gene amplified with the same primer set. These controls generated a standard curve that was used to calculate the copy number of HBV genomes in the supernatants from cells exposed to the various dilutions of compound.
The anti-viral assay was performed using HepG 2.2.15 cells (Sells et al. ([…]) Proc. Natl. Acad. Sci. (USA) 84:1005–1009) seeded at a density of 1×10^5 per well in 24 well plates. The cells were grown to confluence and allowed to stabilize for 2–3 days in RPMI media (supplemented with 10% fetal calf serum (FCS), 2 mM glutamine and penstrep (Life Technologies Ltd., Paisley, Scotland) prior to the addition of the oligonucleotide (defined as day 0). Six dilutions (10, 5, 1, 0.5, 0.1, and 0 μM) were set up in duplicate for each of the antisense oligonucleotides. In each assay run, the nucleoside analog, β-L-(2R,5S)-1,3 oxathiolanyl cytosine (3TC) (Glaxo, Greenford, U.K.) was included as positive control at 0.5, 0.1, 0.075, 0.05, and 0.01 and 0 μM in duplicate. Oligonucleotide was added to 1 ml of RPMI media (supplemented with 3% FCS, 2 mM glutamine and penstrep) at each of the indicated dilutions. At days 2, 4 and 7, the old media was removed and replaced with fresh media containing compound. At day 10, the supernatants were harvested, clarified by low speed centrifugation, prior to the addition of Triton X100 (Sigma, St. Louis, Mo.) and tri-n-butyl phosphate to give a final concentration of 1%. The samples were then heated to 70° C. for 20 minutes to disrupt the viral particles.
Following this treatment, the viral particles were subject to analysis by kinetic PCR. The primers RJ407 (SEQ ID NO:51) and RJ431 (SEQ ID NO:52) were used to detect a 205 bp fragment of the core gene. Kinetic PCR was performed essentially as described by Higuchi et al. (Biotechnol. (1993) 11:1026–1030). Briefly, the PCR reactions were set up under standard conditions except that ethidium bromide was included at a concentration of 4 μg/ml. […] A kinetic PCR analysis was performed by plotting the average intensity of fluorescence from each PCR sample after each annealing/extension cycle against the cycle number. The original template concentration can be calculated by utilizing a standard fluorescence curve generated by templates of known concentration.

[3] = tested on: HBVpol RNA; assay: In vitro translation assay (wheat germ translation system); format: biochemical, hepatitis B virus; conditions: FIG. 8
Procedure: The oligonucleotides of the invention can be assayed for antisense inhibitory activity with a number of different assays. For example, an in vitro translation assay can be used to test antisense activity in which an antisense oligonucleotide can inhibit synthesis of a protein product encoded by the targeted mRNA. In such an assay, oligonucleotides targeted to the polymerase gene were tested against both target and an unrelated control RNA in the wheat germ translation system. […] Results are represented graphically in FIG. 7.
This assay was also used to compare the activity of mismatched oligonucleotides to the activity of the parent oligonucleotide. Four such oligonucleotides, all derivatives of HBVpol-2 (HBVpol-A, SEQ ID NO:46; HBVpol-B, SEQ ID NO:47; HBVpol-C, SEQ ID NO:48, HBVpol-D, SEQ ID NO:49) (Table 1) were synthesized and tested in the assay.
The 5′ end of the polymerase gene (pol) open reading frame, nt 2292–2942, was amplified by the PCR from the full length HBV clone pCH3/3097 (Bartenschlager et al. (1992) Nucleic Acids Res. 20:195–202). The 5′ amplification primer AS10 (SEQ ID NO:55) encoded an EcoRI site. The 3′ amplification primer AS11 (SEQ ID NO:56) both encoded a PstI site and introduced a stop codon in the place of a leucine codon at position 2942–2944. The PCR product was digested with EcoRI and PstI (Promega, Madison, Wis.) and inserted into similarly digested plasmid vector pGEM-3z (Promega, Madison, Wis.). The resulting recombinant plasmid was recut with PstI and an oligonucleot-ide dA:dT(30) linker was introduced.
B. In vitro Transcription of RNA pHBVpol and a second plasmid pHSVProt were linearized with HindIII (Promega, Madison, Wis.), RNA was in vitro transcribed from each construct using T7 Cap-Scribe reagents (Boehringer-Mannheim, Indianapolis, Ind.) employed as per the manufacturer's instructions. The quantity and quality of the RNA's was assessed on a 2% agarose/formaldehyde gel. The control HSVProt RNA was arbitrarily diluted 10 fold to 200 ng/μl and stored in 20 μl aliquots at −80° C.
In this series of experiments only phosphodiester (PO) oligonucleotides were used. 5 μM, 2.5 μM, and 1.25 μM stocks of each of HBVpol-1, HBVpol-2, HBVpol-3, and randomer were made up and stored frozen. Reactions were set up using 100 ng HBVpol and 200 ng pHSVprot. The volume of water in the translation master mix was reduced to allow the addition of 1 μl of each dilution of each oligonucleotide to the reactions whilst maintaining the final volume at 12 μl. This corresponds to final oligonucleotide concentrations of approximately 400 nM, 200 nM, and 100 nM.

## AGAGATGATTTAAGGGTCGATGTCCATGCC (chemistry not given here) [HBV90]
[1]
  strand invasion of the RNA stem evidenced by RNase H cleavage within the stem near the core initiator: able to strand invade

## AGGCAGAGGTTAAGGGTCGA (antisense dA*dG*dG*dC*dA*dG*dA*dG*dG*dT*dT*dA*dA*dG*dG*dG*dT*dC*dG*dA) [HBV66]
[1]
  total RNA cleavage by RNase H: activate RNase H cleavage of the transcript more effectively than the mixture of 10mer arms
  double cleavage (twice cleaved product) by RNase H on both sides of the epsilon stem: greater after 10 minutes than in the presence of HBV68

## AGGCAGAGGTTAAGGGTCGATGTCCATGCC (phosphorothioate, further chemistry not given here) [HBV91]
[1]
  strand invasion of the RNA stem evidenced by RNase H cleavage within the stem near the core initiator: able to strand invade

## GACAUGAACAAGAGAUGAUUTAAGGGTCGA (RNA letters in 5' part, chemistry not given here) [HBV89M]
[1]; 100 nM oligonucleotide, RNase H
  cleavage efficiency: 32%

## GAGGTGAAAAAGTTGCATGG (antisense dG*dA*dG*dG*dT*dG*dA*dA*dA*dA*dA*dG*dT*dT*dG*dC*dA*dT*dG*dG) [HBV48]
[2]
  pIC50: 6.15

## GATAGGGGCATTTGGTGcTC (antisense dG*dA*dT*dA*dG*dG*dG*dG*dC*dA*dT*dT*dT*dG*dG*dT*dG*dC*dT*dC) [HBVpol-C, single mismatch derivative of HBVpol-2]
[3]
  antisense activity of mismatched oligonucleotides compared to parent HBVpol-2: varying degrees of reduction in activity

## GATAGGGGCcTTTGGTGGTC (antisense dG*dA*dT*dA*dG*dG*dG*dG*dC*dC*dT*dT*dT*dG*dG*dT*dG*dG*dT*dC) [HBVpol-B, single mismatch derivative of HBVpol-2]
[3]
  antisense activity of mismatched oligonucleotides compared to parent HBVpol-2: varying degrees of reduction in activity

## GAcAGGGGCATTTGGTGGTC (antisense dG*dA*dC*dA*dG*dG*dG*dG*dC*dA*dT*dT*dT*dG*dG*dT*dG*dG*dT*dC) [HBVpol-A, single mismatch derivative of HBVpol-2]
[3]
  antisense activity of mismatched oligonucleotides compared to parent HBVpol-2: varying degrees of reduction in activity

## GAcAGGGGCcTTTGGTGcTC (antisense dG*dA*dC*dA*dG*dG*dG*dG*dC*dC*dT*dT*dT*dG*dG*dT*dG*dC*dT*dC) [HBVpol-D, three mismatches, derivative of HBVpol-2, reference compound]
[3]
  antisense activity of mismatched oligonucleotides compared to parent HBVpol-2: abrogated antisense activity

## TAAGGGTCGAAGGCAGAGGT (antisense dT*dA*dA*dG*dG*dG*dT*dC*dG*dA*dA*dG*dG*dC*dA*dG*dA*dG*dG*dT) [HBV68]
[1]
  total RNA cleavage by RNase H: activate RNase H cleavage of the transcript more effectively than the mixture of 10mer arms

## TATAAGGGTCGAAGGCAGAGGTGA (antisense dT*dA*dT*dA*dA*dG*dG*dG*dT*dC*dG*dA*dA*dG*dG*dC*dA*dG*dA*dG*dG*dT*dG*dA) [HBV79]
[1]
  total RNA cleavage by RNase H: equal
  double cleavage (twice cleaved product) by RNase H on both sides of the epsilon stem: efficiently activate RNase H cleavage on both sides of the stem after only 1.5 minutes

## TCGATGTCCATGCCCCAAAG (phosphorothioate, further chemistry not given here) [HBV4]
[2]
  pIC50: 5.92
